Measurements from US6034096A, “Compounds with anti-inflammatory and immunosuppressive activities” (Italfarmaco S.p.A., priority 1996, dated 2000).
Counter-ions that a name gives are not always drawn.

Tests used:
serum TNFα = test: In vivo LPS-induced TNFα production (serum TNFα, ELISA); set-up: species or system Male BALB/c mice; conditions: serum 2 h after LPS
Protocol: 2. In vivo LPS-induced TNFα production Male BALB/c mice (18-20 g) were obtained from Harlan-Nossan (Correzzana, Italy); Lipopolysaccharide (LPS) from S. enteritidis (code L-6011) was from Sigma (St. Louis, Mo.); Dexamethasone (Soldesam) from Laboratorio Farmacologico Milanese (Caronno P., Italy).
Mice were treated i.p. with LPS (S. enteritidis, 7.5 mg/kg). Dexamethasone was administered i.p. 30 min. before LPS. Compounds were administered orally 90 min. before LPS. Two hours after LPS administration the anaesthetized animals were sacrificed, blood was collected by cardiac puncture and allowed to coagulate. Serum TNFα was measured by ELISA with "mouse Reagent Sets" (Genzyme, Cambridge, Mass.) according to the manufacturer's instructions and using mouse recombinant TNFα as standard.

human IL-1β = test: In vitro cytokines production test (LPS-stimulated human PBMC, IL-1β ELISA); assay type: cell-based; conditions: 10 ng/ml LPS, 60 min pretreatment, 20 hours culture, read-out: IC50 (inhibition of IL-1β production)
Protocol: 1. In vitro cytokines production test
The compounds of the invention were tested by in particular on the production of human IL-1β. Mononuclear cells (PBMC) were prepared from peripheral blood ("buffy coat") from healthy donors, by centrifugation over density gradient Ficoll-Hypaque (Biochrom KG, Berlin, Germany). The cells (2,5×10^6 for ml) were cultured at 37° C. under humid atmosphere containing 5% CO2 in 96-wells plates (Nunc) at a final volume of 200 μl. […] The production of cytokines was induced by stimulating the cells with 10 ng/ ml of LPS (lipopolysaccharide) from E. coli serotype 055:B5 (Sigma Chemical Co., St. Louis. Mo.). The cells were pretreated with the compounds of the intention dissolved in DMSO (final concentration: 0.05% […]) for 60 minutes. The compounds and LPS were present during the whole 20 hours of culture. As the negative control, not-stimulated cells were used. At the end of the test, supernatants were collected and the IL-1β production was tested by a specific ELISA assay ("sandwich-type antigen capture", R & D System, Minneapolis, Minn.; all of the tests were carried out in duplicate). A goat polyclonal serum specific for human IL-1β was used, purified by affinity, to cover the 96-wells microtitration plates (Nunc). After washing, the wells were incubated for 2 hours with 3% of boyine serum albumine (BSA) in buffered saline. Recombinant human IL-1β was used to obtain a standard curve for each test and the supernatant samples were diluted to 1/20 and 1/80 with PBS+0.1% of BSA. The plates were then incubated at 4° C. overnight. After washing, the secondary antibody was added, i.e. an anti- human lL-1β murine monoclonal antibody. After incubation and washing, a goat anti-murine Ig-G polyclonal antibody peroxidase-conjugated (Zymed) was added, then the chromogenic substrate tetramethylbenzidine dichloride (Sigma). The reaction was stopped with 4N H2 SO4 and the absorbance at 450 nm was measured with an automatic spectrophotometer (Perkin-Elmer).

[1] = 5.0 ng/kg (so in the source), orally 90 min before LPS (7.5 mg/kg i.p.)
[2] = 0.5 mg/kg, orally 90 min before LPS (7.5 mg/kg i.p.)
[3] = 30 mg/kg, i.p. 30 min before LPS (7.5 mg/kg i.p.)

SMILES	IC50 (human IL-1β) [nM]	other results
CCN(CC)Cc1ccc2cc(COC(=O)Nc3ccc(C(=O)NO)cc3)ccc2c1 [Example 12, hydrochloride]	96	Inhibition (%) (serum TNFα; [1]): 64.3%; TNFα (serum TNFα; [1]): 407 pg/mL; Inhibition (%) (serum TNFα; [2]): 55.0%; TNFα (serum TNFα; [2]): 514 pg/mL
CCCN(CCC)Cc1ccc2cc(COC(=O)Nc3ccc(C(=O)NO)cc3)ccc2c1 [Example 13, hydrochloride]	166	
O=C(Nc1ccc(C(=O)NO)cc1)OCc1cccc2ccccc12 [Example 4]	28	
O=C(Nc1ccc(C(=O)NO)cc1)OC/C=C/c1ccccc1 [Example 8]	29	
O=C(Nc1ccc(C(=O)NO)cc1)OCCCc1ccccc1 [Example 6]	43	
CC(C)N1Cc2ccccc2CC1COC(=O)NCc1ccc(C(=O)NO)cc1 (stereo not shown) [Example 17, 4-[N-isopropyl-1,2,3,4-tetrahydroisoquinol-3-yl)methyloxycarbamoylmethyl]benzohydroxamic acid hydrochloride]	21	
CCN(CC)Cc1ccc(COC(=O)Nc2ccc(C(=O)NO)cc2)c2ccccc12 [Example 15, hydrochloride]	14	
C[C@@H]1C[C@H]2[C@@H]3CCC4=CC(=O)C=C[C@]4(C)[C@@]3(F)[C@@H](O)C[C@]2(C)[C@@]1(O)C(=O)CO [Dexamethasone, reference compound]		Inhibition (%) (serum TNFα; [3]): 90.2%; TNFα (serum TNFα; [3]): 112 pg/mL
O=C(CCCCc1ccccc1)Nc1ccc(C(=O)NO)cc1 [Example 1, 4-(5-Phenylpentanamido)benzohydroxamic acid]	305	
O=C(Nc1ccc(C(=O)NO)cc1)OCCC12CC3CC(CC(C3)C1)C2 [Example 3]	531	
CCN(CC)Cc1ccc2cc(CNC(=O)Nc3ccc(C(=O)NO)cc3)ccc2c1 [Example 16, hydrochloride]	10	
O=C(Nc1ccc(C(=O)NO)cc1)OCCC(c1ccccc1)c1ccccc1 [Example 10]	101	
O=C(NCc1ccc(C(=O)NO)cc1)OCC(c1ccccc1)c1ccccc1 [Example 2, 4-[2,2-(Diphenyl)ethoxycarbamoylmethyl]benzohydroxamic acid]	163	
O=C(Nc1ccc(C(=O)NO)cc1)OCc1ccc2ccccc2c1 [Example 7]	12	
O=C(Nc1ccc(C(=O)NO)cc1)OC/C=C\c1ccccc1 [Example 9]	72	
O=C(Nc1ccc(C(=O)NO)cc1)OCC1CCc2ccccc2C1 (stereo not shown) [Example 5]	137	
CCCCN(CCCC)Cc1ccc2cc(COC(=O)Nc3ccc(C(=O)NO)cc3)ccc2c1 [Example 14, hydrochloride]	382	
